Measurements as given in patent US11319303B2 (WIGEN BIOMEDICINE TECHNOLOGY (SHANGHAI) CO., LTD., priority 2017, dated 2022).

Biological target: LC3B (Homo sapiens, UniProt Q9GZQ8)
Assay: Fluorescence Polarization (FP) Assay: displacement of FITC-labeled peptide from GST-LC3B
Assay type: binding
Conditions: not given
Description: The compounds of the present invention for regulating the autophagy-related protein LC3B were tested by Fluorescence Polarization (FP) Assay.
Fluorescence Polarization (FP) Assay Test

With `CN(C)C=C1C(=O)CC(C2CCCCC2)CC1=O` (stereo not drawn) [Compound 262, 4-((dimethylamino)methylene)-[1,1′-bi(cyclohexane)]-3,5-dione] the IC50 was less than 3 µM.

Same assay, conditions: Fluorescence Polarization assay; GST-LC3B 180 nM, FITC-labeled peptide 18 nM, 25° C.; read-out: IC50

`CC(C)C(=O)N1CCN(CCNC=C2C(=O)CC(c3ccccc3)CC2=O)CC1` (stereo not drawn) [Compound 211, 2-(((2-(4-isobutyrylpiperazin-1-yl)ethyl)amino)methylene)-5-phenylcyclohexane-1,3-dione] and `CC(C)CC(=O)N1CCN(CCNC=C2C(=O)CC(c3ccccc3)CC2=O)CC1` (stereo not drawn) [Compound 213, 2-(((2-(4-(3-methylbutanoyl)piperazin-1-yl)ethyl)amino)methylene)-5-phenylcyclohexane-1,3-dione] cannot be ordered by IC50: less than 3 µM for the first, less than 3 µM for the second.

`CC(C)(C)C(=O)N1CCN(CCNC=C2C(=O)CC(c3ccccc3)CC2=O)CC1` (stereo not drawn) [Compound 212, 5-phenyl-2-(((2-(4-pivaloylpiperazin-1-yl)ethyl)amino)methylene) cyclohexane-1,3-dione] and `CN(C)C(=O)N1CCN(CCNC=C2C(=O)CC(c3ccccc3)CC2=O)CC1` (stereo not drawn) [Compound 214, 4-(2-(((2,6-dioxo-4-phenylcyclo-hexylidene)methyl)amino)ethyl)-N,N-dimethylpiperazine-1-carboxamide] cannot be ordered by IC50: less than 3 µM for the first, less than 3 µM for the second.

`CCC(=O)N1CCN(CCNC=C2C(=O)CC(c3ccccc3)CC2=O)CC1` (stereo not drawn) [Compound 215, 5-phenyl-2-(((2-(4-propionylpiperazin-1-yl)ethyl)amino)methylene) cyclohexane-1,3-dione] and `CS(=O)(=O)N1CCN(CCNC=C2C(=O)CC(c3ccccc3)CC2=O)CC1` (stereo not drawn) [Compound 218, 2-(((2-(4-(methylsulfonyl)piperazin-1-yl)ethyl)amino)methylene)-5-phenylcyclohexane-1,3-dione] cannot be ordered by IC50: less than 3 µM for the first, less than 3 µM for the second.

`O=C1CC(c2ccccc2)CC(=O)C1=CNCCN1CCN(C(=O)c2ccccc2)CC1` (stereo not drawn) [Compound 216, 2-(((2-(4-benzoylpiperazin-1-yl)ethyl)amino)methylene)-5-phenylcyclohexane-1,3-dione] and `O=C1CC(c2ccccc2)CC(=O)C1=CNCCN1CCN(C(=O)Cc2ccccc2)CC1` (stereo not drawn) [Compound 221, 5-phenyl-2-(((2-(4-(2-phenylacetyl)piperazin-1-yl)ethyl)amino)methylene) cyclohexane-1,3-dione] cannot be ordered by IC50: less than 3 µM for the first, less than 3 µM for the second.

First: O=C1CC(c2ccccc2)CC(=O)C1=CNCCN1CCN(C(=O)c2ccc([N+](=O)[O-])cc2)CC1 (stereo not drawn) [Compound 217, 2-(((2-(4-(4-nitrobenzoyl)piperazin-1-yl)ethyl)amino)methylene)-5-phenylcyclohexane-1,3-dione]
Second: O=C1CC(c2ccccc2)CC(=O)C1=CNCCN1CCN(C(=O)c2ccc(Cl)cc2)CC1 (stereo not drawn) [Compound 219, 2-(((2-(4-(4-chlorobenzoyl)piperazin-1-yl)ethyl)amino)methylene)-5-phenylcyclohexane-1,3-dione]
The IC50 of the first is higher: 3 to 15 µM for the first, less than 3 µM for the second.

Compared with `O=C1CC(c2ccccc2)CC(=O)C1=CNCCN1CCN(C(=O)c2ccc(Br)cc2)CC1` (stereo not drawn) [Compound 220, 2-(((2-(4-(4-bromobenzoyl)piperazin-1-yl)ethyl)amino)methylene)-5-phenylcyclohexane-1,3-dione], `O=C1CC(c2ccccc2)CC(=O)C1=CNCCN1CCN(C(=O)c2cccnc2)CC1` (stereo not drawn) [Compound 222, 2-(((2-(4-nicotinoylpiperazin-1-yl)ethyl)amino)methylene)-5-phenylcyclohexane-1,3-dione] is lower in IC50: 3 to 15 µM for the first, less than 3 µM for the second. The second is the more potent here.

First: Cc1ccc(NC(=O)N2CCN(CCNC=C3C(=O)CC(c4ccc(C)cc4)CC3=O)CC2)cc1 (stereo not drawn) [Compound 224, 4-(2-(((2,6-dioxo-4-(p-tolyl)cyclohexylidene)methyl)amino)ethyl)-N-(p-tolyl)piperazine-1-carboxamide]
Second: Cc1ccc(C2CC(=O)C(=CNCCN3CCN(S(=O)(=O)c4ccc(C)cc4)CC3)C(=O)C2)cc1 (stereo not drawn) [Compound 227, 5-(p-tolyl)-2-(((2-(4-tosylpiperazin-1-yl)ethyl)amino)methylene) cyclohexane-1,3-dione]
The IC50 of the first is lower: less than 3 µM for the first, 100 to 1000 µM for the second. The first is the more potent here.

`CC(=O)N1CCN(CCNC=C2C(=O)CC(c3ccc(C)cc3)CC2=O)CC1` (stereo not drawn) [Compound 225, 2-(((2-(4-acetylpiperazin-1-yl)ethyl)amino)methylene)-5-(p-tolyl) cyclohexane-1,3-dione] and `C=C(C)C(=O)N1CCN(CCNC=C2C(=O)CC(c3ccc(C)cc3)CC2=O)CC1` (stereo not drawn) [Compound 233, 2-(((2-(4-methacryloyl-piperazin-1-yl)ethyl)amino)methylene)-5-(p-tolyl) cyclohexane-1,3-dione] cannot be ordered by IC50: less than 3 µM for the first, less than 3 µM for the second.

`Cc1ccc(C2CC(=O)C(=CNCCN3CCN(C(=O)N4CCOCC4)CC3)C(=O)C2)cc1` (stereo not drawn) [Compound 226, 2-(((2-(4-(morpholine-4-carbonyl)piperazin-1-yl)ethyl)amino)methylene)-5-(p-tolyl) cyclohexane-1,3-dione] and `O=C1CC(c2ccc(Cl)cc2)CC(=O)C1=CNCCN1CCN(C(=O)N2CCOCC2)CC1` (stereo not drawn) [Compound 249, 5-(4-chlorophenyl)-2-(((2-(4-(morpholine-4-carbonyl)piperazin-1-yl)ethyl)amino)methylene) cyclohexane-1,3-dione] cannot be ordered by IC50: less than 3 µM for the first, less than 3 µM for the second.

`CCCNC(=O)N1CCN(CCNC=C2C(=O)CC(c3ccc(C)cc3)CC2=O)CC1` (stereo not drawn) [Compound 228, 4-(2-(((2,6-dioxo-4-(p-tolyl)cyclohexylidene)methyl)amino)ethyl)-N-propylpiperazine-1-carboxamide] and `Cc1ccc(C2CC(=O)C(=CNCCN3CCN(C(=O)N(C)C)CC3)C(=O)C2)cc1` (stereo not drawn) [Compound 240, 4-(2-(((2,6-dioxo-4-(p-tolyl)cyclohexylidene)methyl)amino)ethyl)-N,N-dimethyl-piperazine-1-carboxamide] cannot be ordered by IC50: less than 3 µM for the first, less than 3 µM for the second.

`Cc1ccc(C2CC(=O)C(=CNCCN3CCN(CCO)CC3)C(=O)C2)cc1` (stereo not drawn) [Compound 229, 2-(((2-(4-(2-hydroxyethyl)piperazin-1-yl)ethyl)amino)methylene)-5-(p-tolyl) cyclohexane-1,3-dione] and `Cc1ccc(C2CC(=O)C(=CNCCN3CCN(CCCO)CC3)C(=O)C2)cc1` (stereo not drawn) [Compound 230, 2-(((2-(4-(3-hydroxypropyl)piperazin-1-yl)ethyl)amino)methylene)-5-(p-tolyl) cyclohexane-1,3-dione] cannot be ordered by IC50: less than 3 µM for the first, less than 3 µM for the second.

`Cc1ccc(C2CC(=O)C(=CNCCN3CCN(C(=S)Nc4ccccc4)CC3)C(=O)C2)cc1` (stereo not drawn) [Compound 231, 4-(2-(((2,6-dioxo-4-(p-tolyl)cyclohexylidene)methyl)amino)ethyl)-N-phenylpiperazine-1-carbothioamide] and `C=CC(=O)N1CCN(CCNC=C2C(=O)CC(c3ccc(C)cc3)CC2=O)CC1` (stereo not drawn) [Compound 232, 2-(((2-(4-acryloylpiperazin-1-yl)ethyl)amino)methylene)-5-(p-tolyl) cyclohexane-1,3-dione] cannot be ordered by IC50: less than 3 µM for the first, less than 3 µM for the second.

`O=C1CC(c2ccccc2)CC(=O)C1=CNCCN1CCNCC1` (stereo not drawn) [Compound 236, 5-phenyl-2-(((2-(piperazin-1-yl)ethyl)amino)methylene) cyclohexane-1,3-dione] and `Cc1ccc(C2CC(=O)C(=CNCCN3CCNCC3)C(=O)C2)cc1` (stereo not drawn) [Compound 237, 2-(((2-(piperazin-1-yl)ethyl)amino)methylene)-5-(p-tolyl) cyclohexane-1,3-dione] fall in the same range of IC50: 3 to 15 µM for the first, 3 to 15 µM for the second.

`CCN1CCN(CCNC=C2C(=O)CC(c3ccc(C)cc3)CC2=O)CC1` (stereo not drawn) [Compound 238, 2-(((2-(4-ethylpiperazin-1-yl)ethyl)amino)methylene)-5-(p-tolyl) cyclohexane-1,3-dione] and `CN(C)C(=O)N1CCN(CCNC=C2C(=O)CC(c3ccc(Cl)cc3)CC2=O)CC1` (stereo not drawn) [Compound 248, 4-(2-(((4-(4-chlorophenyl)-2,6-dioxocyclo-hexylidene)methyl)amino)ethyl)-N,N-dimethylpiperazine-1-carboxamide] cannot be ordered by IC50: less than 3 µM for the first, less than 3 µM for the second.

First: COc1ccc(C2CC(=O)C(=CN(C)C)C(=O)C2)cc1 (stereo not drawn) [Compound 241, 2-((dimethylamino)methylene)-5-(4-methoxyphenyl) cyclohexane-1,3-dione]
Second: CN(C)C=C1C(=O)CC(c2ccc(N(C)C)cc2)CC1=O (stereo not drawn) [Compound 242, 2-((dimethylamino)methylene)-5-(4-(dimethylamino)phenyl) cyclohexane-1,3-dione]
The IC50 of the first is lower: less than 3 µM for the first, 3 to 15 µM for the second. The first is the more potent here.

`COc1ccc(C2CC(=O)C(=CNCCN3CCN(C(=O)N4CCOCC4)CC3)C(=O)C2)cc1` (stereo not drawn) [Compound 246, 5-(4-methoxyphenyl)-2-(((2-(4-(morpholine-4-carbonyl)piperazin-1-yl)ethyl)amino)-methylene) cyclohexane-1,3-dione] and `O=C1CC(c2ccc(C(=O)O)cc2)CC(=O)C1=CNCCN1CCOCC1` (stereo not drawn) [Compound 260, 4-(4-(((2-morpholinoethyl)amino)methylene)-3,5-dioxocyclohexyl) benzoic acid] cannot be ordered by IC50: less than 3 µM for the first, less than 3 µM for the second.

`CN(C)C=C1C(=O)CC(c2ccc3c(c2)CCO3)CC1=O` (stereo not drawn) [Compound 251, 5-(2,3-dihydrobenzofuran-5-yl)-2-((dimethylamino)methylene) cyclohexane-1,3-dione] and `CN(C)C=C1C(=O)CC(c2ccc3[nH]ncc3c2)CC1=O` (stereo not drawn) [Compound 259, 2-((dimethylamino)methylene)-5-(1H-indazol-5-yl)cyclohexane-1,3-dione] cannot be ordered by IC50: less than 3 µM for the first, less than 3 µM for the second.

`CN(C)C=C1C(=O)CC(c2ccc(C(F)(F)F)cc2)CC1=O` (stereo not drawn) [Compound 254, 2-((dimethylamino)methylene)-5-(4-(trifluoromethyl)phenyl) cyclohexane-1,3-dione] and `CN(C)C=C1C(=O)CC(c2cccc(C(F)(F)F)c2)CC1=O` (stereo not drawn) [Compound 255, 2-((dimethylamino)methylene)-5-(3-(trifluoromethyl)phenyl) cyclohexane-1,3-dione] cannot be ordered by IC50: less than 3 µM for the first, less than 3 µM for the second.

First: CC(=O)Nc1ccc(C2CC(=O)C(=CN(C)C)C(=O)C2)cc1 (stereo not drawn) [Compound 256, N-(4-(4-((dimethylamino)methylene)-3,5-dioxocyclohexyl)phenyl) acetamide]
Second: CN(C)C=C1C(=O)CC(c2cccnc2)CC1=O (stereo not drawn) [Compound 257, 2-((dimethylamino)methylene)-5-(pyridin-3-yl)cyclohexane-1,3-dione]
The IC50 of the first is lower: less than 3 µM for the first, 15 to 100 µM for the second.
